The results in this text go back to US20060052307A1, “Bone growth factor” (priority 2002, published 2006).

For series [1], the system named is Sprague-Dawley rats. Put plainly: Bone mineral apposition rate after a single subcutaneous peptide injection, double tetracycline labelling, distal metaphysis of the right femur. Also on record: Bone mineral apposition rate, group mean (Table 2): unit not given here. The conditions noted are these: male rats; for BONE MINERAL APPOSITION, individual rats (Table 6) / Effect on bone mineral apposition / BONE MINERAL APPOSITION, MEAN (Table 6): Example 3, 300 nmoles/kg S.C.; for BONE MINERAL APPOSITION, MEAN (Table 6): control 1.62; for Effect on bone mineral apposition rate versus control / Bone mineral apposition rate, individual rats (Table 2) / Bone mineral apposition rate, group mean (Table 2): Example 1; for Bone mineral apposition rate, individual rats (Table 2) / Bone mineral apposition rate, group mean (Table 2): 300 nmoles/kg s.c. single dose; for Bone mineral apposition rate, group mean (Table 2): N=4, control 1.48. Format: in vivo, rat. Here is the method:
Test peptides were administered by subcutaneous injection to the right gluteal region of the rats after being dissolved in a carrier buffer comprising PBS containing 0.1% heat inactivated BSA at pH 7.4. The dose was 300 nmoles/kg bodyweight in an injection volume of 400 μl.
Male Sprague-Dawley rats from Charles River Laboratory were used. The weight of the animals was approximately 350 g. They were housed in pairs in standard shoebox cages. Purina rat chow and tap water were provided ad libitum. The light/dark cycle was 12 hours, the temperature 22° C. and the humidity 50%. The animals were acclimatized for one week before initiating dosing.
Bone mineral apposition rate as measured for the distal metaphysis of the right femur was the parameter for the assessment of activity. Two doses of tetracycline hydrochloride (Sigma), 24 mg/kg body weight were administered I.M. in an injection volume of 800 μl to the left gluteus maximus muscle. The first dose was given immediately following the administration of the peptide, and the second dose 48 hours later. 24 hours after the second dose of tetracycline, the animals were sacrificed by carbon dioxide narcosis. The right femur was dissected clear of muscles and a 0.5 cm cross section of the bone 1 mm below the upper epiphyseal cartilage was taken and processed undecalcified for histological preparation of […]. Bone mineral apposition rate was measured in 15 randomly selected bone formation sites with two tetracycline labels in the trabecular bone. The arithmetic mean of these 15 sites was taken as the mean bone mineral apposition for the respective animals.
The dose of peptide was dissolved in 400 μl of buffer comprising of PBS with 0.1% of heat inactivated BSA and the method for the determination of bone mineral apposition rate was as described before.
Experimental design: Animals were grouped in four. All groups received a single dose of SEQ ID NO:2 (300 nmoles/kg) subcutaneously injected to the right gluteal region at Day 0 at approximately the same time within 15 minutes. Two doses tetracycline labeling at intervals of 48 hours was used to measure bone mineral apposition rate. The control group received buffer injection only.

Series [2] can be described thus: Stability of peptides in solution, intact peptide remaining by HPLC peak height. It is filed as physicochemical. The conditions noted are these: pH 7.4. Here is the method:
Solvents for test peptides: Milli-Q water filtered through […] filter; resistance—18.2 Mega Ohms
Phosphate buffered saline: pH […] from Gibco (Cat. #100113-023)
20. mM sodium acetate buffer: pH 4.5 prepared with Milli-Q water and filtered through […] filter.
Peptides: The test peptides included those of SEQ ID NOs: 2, 3, 4 & 7.
Peptide preparation: Test peptides were dissolved in either PBS or sodium acetate buffer at a concentration of 0.2 mg per ml. The purity of the test peptides was greater than 95%.
Method for testing stability: Stability of the peptides was examined at pH7.4 and at room temperature, 4° C. and 37° C. The amount of intact peptide remaining over time was compared with the initial intact amount. The quantification of the amount of peptide was based on peak height in an HPLC profile.

In series [3] the test system is Sprague-Dawley rats. Put plainly: Bone mineral apposition rate after a single subcutaneous peptide injection, double tetracycline labelling, distal metaphysis of the right femur. Format: in vivo, rat. The conditions noted are these: Example 2, 300 nmoles/kg s.c., N=3, control 1.18. Also noted: unit not given here.

Values joined by “and” are separate entries in the source; they are usually repeats but may differ in a detail not shown here. Equal values may be shown once. Bridges are numbered along the chain shown (N, C = ends). Roman numbers before positions name the chains, in order. The star is where a group is joined. Cam = NC(=O)C*

For the substance “Ac-R T N E H T A D C K —NH2 (Ac-RTNEHTADCK-NH2) [SEQ ID NO: 8, monomer]”, in series [1], the BONE MINERAL APPOSITION, individual rats (Table 6) was 2.27 µm/d and 1.78 µm/d and 2.15 µm/d and 2.01 µm/d; the “Effect on bone mineral apposition” value is given as “significantly stimulated”; the BONE MINERAL APPOSITION, MEAN (Table 6) came to 2.05 µm/d.
On to “Ac-R T Q E H T A E C K —NH2 (Ac-RTQEHTAECK-NH2) [SEQ ID NO: 7, monomer, prior art peptide]”, for which the “Effect on bone mineral apposition rate versus control” value in series [1] (300 nmoles/kg s.c.) is recorded as “significantly higher than the control group”. In series [1], the Bone mineral apposition rate, individual rats (Table 2) was 2.41 µm/d and 2.54 µm/d and 2.25 µm/d and 2.24 µm/d; the “Bone mineral apposition rate, group mean (Table 2)” value amounted to 2.36; the BONE MINERAL APPOSITION, individual rats (Table 6) is 1.91 µm/d and 1.73 µm/d (2×) and 2.06 µm/d; the “Effect on bone mineral apposition” value is “significantly stimulated”. In series [1], the BONE MINERAL APPOSITION, MEAN (Table 6) came to 1.86 µm/d. In addition, the Degradation in solution result in series [2] (4° C. and room temperature, 6 months) was “totally degraded”. Further, the Degradation in solution entry in series [2] (4° C. and room temperature, over three months) is given as “substantial degradation”. Further, the Degradation in solution entry in series [2] (37° C., over 3 weeks) is “substantial degradation”.
Take K-T-Q-E-F-T-A-E-M-K [SEQ ID NO: 1]: the “Bone Mineral Apposition Rate, Mean rate (Table 4)” value in series [3] was 1.61.
In the case of “SEQ ID NO: 5: peptide of SEQ ID NO:7 with a carboxyamidomethyl residue modifying cysteine at the 9-position of the decamer (Ac-RTQEHTAEC(Cam)K-NH2)”, in series [1] (Example 4, 300 nmoles/kg s.c.), the “Bone mineral apposition rate compared with the prior art peptide of SEQ ID NO: 7 (FIG. 5)” value is reported as “significantly greater”.
As for “SEQ ID NO: 7, dimer: dimerized form of the peptide having SEQ ID NO:7, disulfide bonding between the cysteine residues (chain 1 Ac-RTQEHTAECK-NH2; chain 2 Ac-RTQEHTAECK-NH2; disulfide I:9-II:9; also: disulfide-linked dimer)”, the “Effect on bone mineral apposition rate versus control” value in series [1] (300 nmoles/kg s.c.) is reported as “inhibitory effect”. For the same substance, in series [1], the Bone mineral apposition rate, individual rats (Table 2) was 1.28 µm/d and 1.41 µm/d and 1.5 µm/d and 1.38 µm/d; the “Bone mineral apposition rate, group mean (Table 2)” value came out at 1.39; the BONE MINERAL APPOSITION, individual rats (Table 6) is 1.29 µm/d and 1.51 µm/d (2×); the “Effect on bone mineral apposition” value is recorded as “significantly inhibit”. Besides, the BONE MINERAL APPOSITION, MEAN (Table 6) in series [1] was 1.43 µm/d.
Consider “SEQ ID NO: 8, dimer: dimer form of the peptide with SEQ ID NO: 8 (chain 1 Ac-RTNEHTADCK-NH2; chain 2 Ac-RTNEHTADCK-NH2; not fully specified (bridges); cysteine pairing not given here; also: dimer, linkage not given here)”, for which, in series [1], the BONE MINERAL APPOSITION, individual rats (Table 6) is 1.39 µm/d and 1.43 µm/d and 1.42 µm/d and 1.36 µm/d; the “Effect on bone mineral apposition” value is listed as “significantly inhibit”; the BONE MINERAL APPOSITION, MEAN (Table 6) stood at 1.4 µm/d.
